# In patent publication US20160051665A1, “INDUCTION OF IMMUNE RESPONSE” (priority 2010, published 2016):
# Key:
# [1] = system: HBV-containing HepG2.2.15 cells; test: interferon-γ ELISpot: peptide-primed CTLs against BuCas-treated target cells; assay type: cell-based, human; details: BuCas 1 mg/ml twice at 3 day interval, FIG. 2B
# Experimental: Heparinized blood from healthy HLA-A2 donors was purchased from Research Blood Components, LLC, (Brighton, Mass.). Peripheral blood mononuclear cells were purified and cultured as described (13, 21). After initial stimulation with synthetic peptide, T cells were re-stimulated with CD4/CD8 T cell depleted autologous monocytes pulsed with synthetic peptide at 10 μg/ml for 5 days. IL-2 treatment and in vitro re-stimulation were repeated thrice prior to use of in vitro expanded T cells in ELISpot assays.
# In vitro expanded CTLs were used as effectors in ELISpot assays to assess antigen stimulated interferon-γ release according to the manufacturer's instructions (BD-Pharmingen, San Jose, Calif.). Target cells were HepG2 human hepatoma cells (HBV negative; American Type Culture Collection) or HBV-containing HepG2.2.15 cells (22). […]
# Peptides presented on the surface of a cell in the context of the MHC class I complex should be recognized with high sensitivity upon incubation with cognate peptide-primed CTLs, with specific killing of the target cells. […] Target cell recognition was quantified by interferon-γ ELISpot assay.
# The ability of in vitro generated CTLs to recognize and secrete interferon-γ was evaluated by ELISpot assay. […] The P value was calculated from a Student's t-Test analysis of experimental results.
# [2] = serum drug level after single oral dose in woodchucks; assay type: in vivo; details: woodchuck, single oral dose of 100 mg/kg
# Experimental: Twenty adult chronically infected woodchucks were stratified by age, sex, body weight, serum viral load, and serum GGT activity into four treatment groups of five animals each. Drug was administered orally at 100 mg/kg (in sterile water), chosen after an initial dose finding trial. […] The subunit vaccine consisted of 22-nm WHsAg particles, purified by zonal ultracentrifugation from serum of WHV7P1-infected WHV carriers (24), inactivated with formalin, and adsorbed onto alum. Prior to alum adsorption, vaccine was tested in naïve, WHV-susceptible animals and no residual virus was detected. Purified WHsAg was not pretreated with enzymes that remove preS sequences.
# glucosidase I = target: T1, glucosidase I (Homo sapiens, UniProt Q13724); details: cited from earlier work
# T1 sequence (Q13724 1-837): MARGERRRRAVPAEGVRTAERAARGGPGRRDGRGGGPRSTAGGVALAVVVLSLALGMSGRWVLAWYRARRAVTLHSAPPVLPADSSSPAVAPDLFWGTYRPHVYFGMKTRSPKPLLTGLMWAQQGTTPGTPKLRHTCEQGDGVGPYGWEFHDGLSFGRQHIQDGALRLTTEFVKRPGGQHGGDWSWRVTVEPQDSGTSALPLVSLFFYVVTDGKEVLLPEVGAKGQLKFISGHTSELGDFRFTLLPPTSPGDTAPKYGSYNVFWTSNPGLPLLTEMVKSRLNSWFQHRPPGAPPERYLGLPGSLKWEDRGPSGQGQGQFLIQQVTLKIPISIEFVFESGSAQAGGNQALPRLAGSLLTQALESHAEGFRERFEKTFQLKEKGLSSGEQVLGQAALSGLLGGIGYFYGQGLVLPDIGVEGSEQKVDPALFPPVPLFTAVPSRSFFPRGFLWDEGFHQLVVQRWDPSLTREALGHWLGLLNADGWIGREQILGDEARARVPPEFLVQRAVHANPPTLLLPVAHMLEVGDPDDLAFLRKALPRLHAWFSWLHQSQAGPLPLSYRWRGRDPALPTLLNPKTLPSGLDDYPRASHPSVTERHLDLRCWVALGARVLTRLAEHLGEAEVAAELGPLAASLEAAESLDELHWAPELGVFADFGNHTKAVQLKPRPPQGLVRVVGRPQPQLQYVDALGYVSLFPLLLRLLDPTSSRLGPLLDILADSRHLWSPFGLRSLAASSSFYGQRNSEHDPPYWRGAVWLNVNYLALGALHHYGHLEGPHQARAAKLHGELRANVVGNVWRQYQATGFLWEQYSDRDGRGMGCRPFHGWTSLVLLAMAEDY
smiles,measurement,setting,value
"CCCC(=O)O[C@H]1CN2CC[C@H](O)[C@@H]2[C@@H](O)[C@H]1O [BuCas, 6-O-butanoyl castanospermine]",presentation of the D-peptide epitope by target cells,[1]; CTLs primed with D-peptide,increased significantly
same,presentation of the N-peptide epitope by target cells,[1]; CTLs primed with N-peptide,reduced
same,"Cmax, range",[2],5000 to 12100 ng/mL
same,average observed Cmax,[2],7700 ng/mL
same,potency as inhibitor of glucosidase I relative to deoxynojirimycin,glucosidase I,more potent inhibitors of glucosidase I than deoxynojirimycin
